{"source": "patent US11337971B2", "about": "“Dopamine D3 receptor selective antagonists/partial agonists and uses thereof” (THE UNITED STATES OF AMERICA, AS REPRESENTED BY THE …, priority 2018, dated 2022)", "key": {"Male Long-Evans rats [1]": {"test_system": "Male Long-Evans rats", "assay": "Acquisition of oxycodone self-administration in rats", "assay_type": "in vivo, rat", "conditions": "5-15 mg/kg i.p., 15 min before each of the initial 5 sessions; oxycodone 50 μg/kg/infusion, FR 1", "procedure": "Animals: Male Long-Evans rats (275-325 g) (Charles-River Laboratories, Raleigh, N.C.) were used throughout this study. Upon arrival, they were housed in an animal facility under a reversed 12 h light-dark cycle (light on at 7:00 PM) with free access to food and water. They were allowed to acclimatize to the new environment at least for 7 days prior to study initiation. All procedures were approved by the Animal Care and Use Committee (IACUC) of the U.S. National Institute on Drug Abuse (NIDA) and were consistent with the Guide for the Care and Use of Laboratory Animals, 8th edition (National Research Council, 2011).\nSurgery and self-administration procedures: The i.v. catheterization surgery and i.v. oxycodone self-administration procedures are the same as reported previously (You et al, 2017). […]\nOxycodone self-administration training was conducted in an operant conditioning chamber equipped with two response levers (Med Associates Inc., Georgia, Vt., USA). […] This time also served as a timeout period during which the cue light and tone were kept on and the animal's response on the active lever was recorded but had no scheduled consequence.\nThree groups of rats (n=8/group) were used to test the effects of compound (±)-29 on acquisition of oxycodone self-administration. […] Animals' responses on the levers and oxycodone infusions were recorded. […]"}, "Male Long-Evans rats [2]": {"test_system": "Male Long-Evans rats", "assay": "Maintenance of oxycodone self-administration and oxycodone-seeking after oxycodone was replaced by saline", "assay_type": "in vivo, rat", "conditions": "i.p.", "procedure": "Four groups of rats (n=7/group) were first trained to self-administer oxycodone at a dose of 100 μg/kg/infusion for 2 weeks followed by 50 μg/kg/infusion for the rest of the training sessions and for the test session. The daily self-administration of oxycodone at the low dose continued until the average oxycodone infusions/session varied less than 10% over 3 consecutive sessions (normally 6-10 sessions were required to meet this criterion of stability). On the following test day, the groups of rats were first systemically injected with either vehicle or a dose of compound (±)-29 (5, 15 or 25 mg/kg, i.p.), and 15 min later, the animals were allowed to self-administer oxycodone.\nFollowing completion of the self-administration testing, the rats continued to self-administer oxycodone (50 μg/kg/infusion) for additional 4 sessions. On the next day, the animals were re-assigned into 3 groups, and pretreated with either vehicle or 1 of the 2 doses of compound (±)-29 (5 or 15 mg/kg). Fifteen min later, the animals were placed in the chambers, and allowed to lever-press for an extinction session during which saline was substituted for […]. Other conditions remain the same as […] session."}, "Male Long-Evans rats [3]": {"test_system": "Male Long-Evans rats", "assay": "Oxycodone-triggered reinstatement of drug-seeking behavior", "assay_type": "in vivo, rat", "conditions": "5-15 mg/kg, i.p., oxycodone priming 1 mg/kg", "procedure": "For the three groups from Experiment 2, extinction sessions continued without drug treatment until the rats' average active lever-presses/session decreased to less than 10 responses over 3 consecutive sessions. On the following day, 2 groups of rats were first pretreated with 1 of 2 doses of compound (±)-29 (5 or 15 mg/kg) while another group with vehicle. Fifteen min following pretreatment, all the animals received a non-contingent injection of oxycodone priming (1 mg/kg, i.p.) and then were placed into the same operant chambers for another extinction session."}, "Male Long-Evans rats [4]": {"test_system": "Male Long-Evans rats", "assay": "Naloxone-precipitated conditioned place aversion (CPA) in chronic oxycodone-treated rats", "assay_type": "in vivo, rat", "conditions": "5 or 15 mg/kg, i.p., 1 h before naloxone conditioning", "procedure": "Naloxone-precipitated CPA was tested in a place-conditioning apparatus (Med Associates, St Albans, Vt.) consisting of two side compartments (21 cm×28 cm) and a central gray connecting area (21 cm×12.5 cm); a sliding door separated each compartment from the connecting area. The two side compartments differed in wall color (black vs white), floor type (stainless steel net vs stainless steel grid), and illumination. Before the experiment started, all the animals were allowed to explore the conditioning apparatus for 15 min (preconditioning).\nSix groups (n=8/group) of rats were involved in this test, 3 groups were chronically treated with oxycodone (3 mg/kg, i.p.) and the other 3 with saline (1 ml/kg), twice daily (800 and 1800 h). Four hours following the morning injection on Day 4 and 6, the oxycodone treated rats were challenged with saline and immediately confined in one side compartment of the conditioning box for 30 min, while on Day 5 and 7, they were first pretreated with either vehicle or 1 of 2 doses of compound (±)-29 (5 and 15 mg/kg, i.p.) 3 h after morning oxycodone injection, and 1 h later, challenged with naloxone (1 mg/kg, i.p.). […] The time that animals spent in each compartment was recorded. The CPA score was calculated as the time difference (seconds) that animal spent in drug-paired versus saline-paired compartment."}, "[5]": {"test_system": "oxycodone-induced locomotor sensitization and CPP", "assay": "Acquisition of oxycodone-induced locomotor sensitization and CPP", "conditions": "in vivo"}}, "note": "“Also recorded” adds a separate entry of the source."}
{"smiles": "CCc1cc(Cl)c(OC)c(N2CCN(CC(O)CCNC(=O)c3cc4ccccc4[nH]3)CC2)c1", "note": "(racemic) [Compound 29, N-(4-(4-(3-chloro-5-ethyl-2-methoxyphenyl)piperazin-1-yl)-3-hydroxybutyl)-1H-indole-2-carboxamide]", "values": [{"measurement": "oxycodone infusions and active lever presses during acquisition of oxycodone self-administration", "setting": "Male Long-Evans rats [1]", "value": "dose-dependently decreased the number of oxycodone infusions and active lever presses; also recorded: dose-dependently inhibited the acquisition of oxycodone self-administration"}, {"measurement": "oxycodone infusions during maintenance of self-administration", "setting": "Male Long-Evans rats [2]; 5-25 mg/kg", "value": "dose-dependently decreased oxycodone infusions; also recorded: dose-dependently reduced oxycodone self-administration"}, {"measurement": "oxycodone-seeking behavior (extinction responding) when saline was substituted for oxycodone", "setting": "Male Long-Evans rats [2]; 5 or 15 mg/kg", "value": "dose-dependently inhibited oxycodone-seeking behavior; also recorded: dose-dependently reduced"}, {"measurement": "oxycodone-primed reinstatement of active lever-presses", "setting": "Male Long-Evans rats [3]", "value": "dose-dependently blocked; also recorded: dose dependently reduced reinstatement to oxycodone seeking"}, {"measurement": "naloxone-precipitated CPA in chronically oxycodone-treated rats", "setting": "Male Long-Evans rats [4]", "value": "dose-dependently attenuated the CPA induced by naloxone; also recorded: significantly blocked CPA induced by naloxone-precipitated withdrawal; also recorded: inhibition of naloxone-precipitated conditioned place aversion"}, {"measurement": "acquisition of oxycodone-induced locomotor sensitization and CPP", "setting": "[5]", "value": "significantly inhibits acquisition of both oxycodone-induced locomotor sensitization and CPP"}]}
